We go through 36 molecules from patent US9204653B2, “5-fluoro pyrimidine derivatives” (DOW AGROSCIENCES LLC, priority 2008, dated 2015).

Structures are written as SMILES. Where two headings read alike, the source gives them in different places.

The subject of the test is Mycosphaerella graminicola; Anamorph: Septoria tritici; Bayer Code SEPTTR. The experiment in a line: Leaf blotch of wheat, foliar fungicide treatment, one day protectant (1DP) or three day curative (3DC). Type of test: in vivo, Septoria tritici on wheat plants (variety Yuma). The note with it: Zymoseptoria tritici, rating of percent disease control.
[1] abbreviates: 24 h, one day protectant, read-out: SETTTR 1DP 25 ppm.
The mark [2] stands for this setting: 24 h, one day protectant, read-out: SEPTTR 1DP 100 ppm.
Setting [3] is: 72 h, three day curative, read-out: SEPTTR 3DC 25 ppm.
The mark [4] stands for this setting: 72 h, three day curative, read-out: SEPTTR 3DC 100 ppm.

Consider `COc1cccc(COc2ncc(F)c(N3CCOCC3)n2)c1` [Compound 586], for which the pest or weed control at 25 ppm lay within 0 to 25% under setting [1] and 0 to 25% under setting [3]. The pest or weed control at 100 ppm under setting [2] was 0 to 25% and the pest or weed control at 100 ppm under setting [4] is 0 to 25%.

With `O=C(Nc1ccsc1)Nc1nc(OCc2ccc(F)cc2)ncc1F` [Compound 587], the pest or weed control at 25 ppm fell in the range of 0 to 25% under setting [1] and 26 to 50% under setting [3]. For the same molecule, the pest or weed control at 100 ppm lay within 0 to 25% under setting [2] and 76 to 100% under setting [4].

For the molecule `CNc1nc(OCc2ccc(OC)c(OC)c2)ncc1F` [Compound 589], the pest or weed control at 25 ppm by setting is: under setting [1], 0 to 25%; under setting [3], 0 to 25%. For the same molecule, the pest or weed control at 100 ppm is, setting by setting: under setting [2], 0 to 25%; under setting [4], 0 to 25%.

Consider `COc1ccc(COc2ncc(F)c(N)n2)cc1F` [Compound 590], for which the pest or weed control at 25 ppm is, setting by setting: under setting [1], 76 to 100%; under setting [3], 76 to 100%. Also, the pest or weed control at 100 ppm was in the range of 76 to 100% under setting [2] and 76 to 100% under setting [4].

As for `Cc1cc(C)cc(C(C)Oc2ncc(F)c(N)n2)c1` (stereo not drawn) [Compound 592], the pest or weed control at 25 ppm is, setting by setting: under setting [1], 76 to 100%; under setting [3], 76 to 100%. The pest or weed control at 100 ppm lay within 76 to 100% under setting [2] and 76 to 100% under setting [4].

`COc1cccc(COc2ncc(F)c(NOCc3ccccc3)n2)c1` [Compound 594]: the pest or weed control at 25 ppm runs as follows: under setting [1], 0 to 25%; under setting [3], 0 to 25%. In addition, the pest or weed control at 100 ppm under setting [2] lay in the range of 51 to 75% and the pest or weed control at 100 ppm under setting [4] lay in the range of 26 to 50%.

Turning to `Cn1ccc(COc2ncc(F)c(NC(=S)NCc3ccccc3F)n2)n1` [Compound 595], the pest or weed control at 25 ppm under setting [1] was in the range of 26 to 50% and the pest or weed control at 25 ppm under setting [3] was in the range of 0 to 25%. The pest or weed control at 100 ppm runs as follows: under setting [2], 76 to 100%; under setting [4], 0 to 25%.

On to `Nc1nc(OCc2ccc(OC(F)(F)F)cc2)ncc1F` [Compound 596], for which the pest or weed control at 25 ppm under setting [1] was 76 to 100% and the pest or weed control at 25 ppm under setting [3] lay in the range of 76 to 100%. In addition, the pest or weed control at 100 ppm reads like this: under setting [2], 76 to 100%; under setting [4], 76 to 100%.

Turning to `Cc1cc(C(C)Oc2ncc(F)c(N)n2)ccc1Cl` (stereo not drawn) [Compound 597], the pest or weed control at 25 ppm fell in the range of 76 to 100% under setting [1] and 76 to 100% under setting [3]. Besides, the pest or weed control at 100 ppm reads like this: under setting [2], 76 to 100%; under setting [4], 76 to 100%.

Take `CC[Si](CC)(CC)Nc1nc(OCc2cccc(C#N)c2)ncc1F` [Compound 599]: the pest or weed control at 25 ppm under setting [1] is 51 to 75% and the pest or weed control at 25 ppm under setting [3] was in the range of 76 to 100%. Besides, the pest or weed control at 100 ppm is, setting by setting: under setting [2], 76 to 100%; under setting [4], 76 to 100%.

For the molecule `CCOCNc1nc(OCc2cccc(OC)c2)ncc1F` [Compound 601], the pest or weed control at 25 ppm was in the range of 76 to 100% under setting [1] and 76 to 100% under setting [3]. Moreover, the pest or weed control at 100 ppm reads like this: under setting [2], 76 to 100%; under setting [4], 76 to 100%.

With `Cc1cccc(COc2ncc(F)c(N)n2)c1C` [Compound 602], the pest or weed control at 25 ppm under setting [1] lay in the range of 0 to 25% and the pest or weed control at 25 ppm under setting [3] was in the range of 0 to 25%. Further, the pest or weed control at 100 ppm lay in the range of 51 to 75% under setting [2] and 0 to 25% under setting [4].

Take `COc1cccc(COc2ncc(F)c(N/N=C/c3nc(C)cs3)n2)c1` [Compound 603]: the pest or weed control at 25 ppm was 26 to 50% under setting [1] and 0 to 25% under setting [3]. For the same molecule, the pest or weed control at 100 ppm is, setting by setting: under setting [2], 76 to 100%; under setting [4], 0 to 25%.

Regarding `Nc1nc(OCc2ccccc2Br)ncc1F` [Compound 604], the pest or weed control at 25 ppm by setting is: under setting [1], 76 to 100%; under setting [3], 76 to 100%. The pest or weed control at 100 ppm by setting is: under setting [2], 76 to 100%; under setting [4], 76 to 100%.

Consider `CC[Si](CC)(CC)Nc1nc(Oc2ccc(OC)cc2)ncc1F` [Compound 605], for which the pest or weed control at 25 ppm runs as follows: under setting [1], 51 to 75%; under setting [3], 0 to 25%. Besides, the pest or weed control at 100 ppm under setting [2] lay in the range of 76 to 100% and the pest or weed control at 100 ppm under setting [4] lay within 76 to 100%.

On to `CC(Oc1ncc(F)c(N)n1)c1ccc(Cl)c(Cl)c1Cl` (stereo not drawn) [Compound 607], for which the pest or weed control at 25 ppm under setting [1] was 0 to 25% and the pest or weed control at 25 ppm under setting [3] lay in the range of 0 to 25%. The pest or weed control at 100 ppm reads like this: under setting [2], 0 to 25%; under setting [4], 26 to 50%.

`COc1cccc(COc2ncc(F)c(N(C)N)n2)c1` [Compound 608]: the pest or weed control at 25 ppm is, setting by setting: under setting [1], 51 to 75%; under setting [3], 51 to 75%. Also, the pest or weed control at 100 ppm lay within 76 to 100% under setting [2] and 76 to 100% under setting [4].

For `COc1cccc(COc2ncc(F)c(N)n2)c1OC` [Compound 609], the pest or weed control at 25 ppm by setting is: under setting [1], 76 to 100%; under setting [3], 76 to 100%. Further, the pest or weed control at 100 ppm under setting [2] fell in the range of 76 to 100% and the pest or weed control at 100 ppm under setting [4] was in the range of 76 to 100%.

For `Cc1ccc(OC(=O)Oc2ncc(F)c(/N=C/N(C)C)n2)cc1` [Compound 610], the pest or weed control at 25 ppm under setting [1] lay in the range of 76 to 100% and the pest or weed control at 25 ppm under setting [3] was in the range of 26 to 50%. The pest or weed control at 100 ppm by setting is: under setting [2], 76 to 100%; under setting [4], 51 to 75%.

For `Nc1nc(OS(=O)(=O)c2ccc(Cl)cc2)ncc1F` [Compound 611], the pest or weed control at 25 ppm is 76 to 100% under setting [1] and 76 to 100% under setting [3]. The pest or weed control at 100 ppm was in the range of 76 to 100% under setting [2] and 76 to 100% under setting [4].

Consider `N#Cc1cccc(COc2ncc(F)c(NSc3ccccc3[N+](=O)[O-])n2)c1` [Compound 612], for which the pest or weed control at 25 ppm lay within 76 to 100% under setting [1] and 76 to 100% under setting [3]. The pest or weed control at 100 ppm by setting is: under setting [2], 76 to 100%; under setting [4], 76 to 100%.

Turning to `Cc1ccc(COc2ncc(F)c(NC(=O)OCc3ccccc3)n2)cc1` [Compound 613], the pest or weed control at 25 ppm under setting [1] fell in the range of 76 to 100% and the pest or weed control at 25 ppm under setting [3] was in the range of 76 to 100%. The pest or weed control at 100 ppm lay within 76 to 100% under setting [2] and 76 to 100% under setting [4].

As to `CC(C)OCNc1nc(OCc2ccc(F)cc2)ncc1F` [Compound 614], the pest or weed control at 25 ppm runs as follows: under setting [1], 76 to 100%; under setting [3], 76 to 100%. The pest or weed control at 100 ppm reads like this: under setting [2], 76 to 100%; under setting [4], 76 to 100%.

Regarding `CC(=O)Nc1nc(O/N=C(\C)c2ccccc2)ncc1F` [Compound 616], the pest or weed control at 25 ppm by setting is: under setting [1], 76 to 100%; under setting [3], 76 to 100%. The pest or weed control at 100 ppm by setting is: under setting [2], 76 to 100%; under setting [4], 76 to 100%.

For the molecule `Cc1ccc(C(C)C)cc1C(C)Oc1ncc(F)c(N)n1` (stereo not drawn) [Compound 617], the pest or weed control at 25 ppm under setting [1] lay within 76 to 100% and the pest or weed control at 25 ppm under setting [3] was in the range of 76 to 100%. The pest or weed control at 100 ppm under setting [2] fell in the range of 76 to 100% and the pest or weed control at 100 ppm under setting [4] was 76 to 100%.

Take `COc1cc(COc2ncc(F)c(N)n2)cc(OC)c1` [Compound 623]: the pest or weed control at 25 ppm lay in the range of 76 to 100% under setting [1] and 51 to 75% under setting [3]. Moreover, the pest or weed control at 100 ppm under setting [2] is 76 to 100% and the pest or weed control at 100 ppm under setting [4] fell in the range of 76 to 100%.

For the molecule `CC(=O)Nc1nc(OCCc2ccc(Cl)cc2)ncc1F` [Compound 624], the pest or weed control at 25 ppm by setting is: under setting [1], 51 to 75%; under setting [3], 51 to 75%. Moreover, the pest or weed control at 100 ppm was in the range of 76 to 100% under setting [2] and 76 to 100% under setting [4].

For `CSCCOc1ncc(F)c(N)n1` [Compound 625], the pest or weed control at 25 ppm runs as follows: under setting [1], 0 to 25%; under setting [3], 0 to 25%. In addition, the pest or weed control at 100 ppm by setting is: under setting [2], 26 to 50%; under setting [4], 26 to 50%.

Consider `Nc1nc(OCc2nccs2)ncc1F` [Compound 628], for which the pest or weed control at 25 ppm was in the range of 26 to 50% under setting [1] and 51 to 75% under setting [3]. The pest or weed control at 100 ppm runs as follows: under setting [2], 76 to 100%; under setting [4], 76 to 100%.

Take `Nc1nc(OCc2ccc(SC(F)(F)F)cc2)ncc1F` [Compound 632]: the pest or weed control at 25 ppm by setting is: under setting [1], 76 to 100%; under setting [3], 76 to 100%. Besides, the pest or weed control at 100 ppm by setting is: under setting [2], 76 to 100%; under setting [4], 76 to 100%.

Turning to `CCOC(=O)Nc1nc(OCc2cccc(F)c2)ncc1F` [Compound 633], the pest or weed control at 25 ppm under setting [1] was in the range of 76 to 100% and the pest or weed control at 25 ppm under setting [3] fell in the range of 76 to 100%. Also, the pest or weed control at 100 ppm reads like this: under setting [2], 76 to 100%; under setting [4], 76 to 100%.

As for `CN(C)/C=N/c1nc(OC(=O)OCC(Cl)(Cl)Cl)ncc1F` [Compound 634], the pest or weed control at 25 ppm runs as follows: under setting [1], 76 to 100%; under setting [3], 76 to 100%. The pest or weed control at 100 ppm reads like this: under setting [2], 76 to 100%; under setting [4], 76 to 100%.

On to `COc1ccc(C(=O)Oc2ncc(F)c(/N=C/N(C)C)n2)cc1` [Compound 636], for which the pest or weed control at 25 ppm lay in the range of 76 to 100% under setting [1] and 76 to 100% under setting [3]. Further, the pest or weed control at 100 ppm by setting is: under setting [2], 76 to 100%; under setting [4], 76 to 100%.

As for `Nc1nc(OCc2ccc(CO)cc2)ncc1F` [Compound 637], the pest or weed control at 25 ppm under setting [1] lay in the range of 76 to 100% and the pest or weed control at 25 ppm under setting [3] lay within 76 to 100%. In addition, the pest or weed control at 100 ppm is 76 to 100% under setting [2] and 76 to 100% under setting [4].

As to `COc1cccc(COc2ncc(F)c(NCOCc3ccccc3)n2)c1` [Compound 638], the pest or weed control at 25 ppm is, setting by setting: under setting [1], 51 to 75%; under setting [3], 0 to 25%. Further, the pest or weed control at 100 ppm runs as follows: under setting [2], 76 to 100%; under setting [4], 51 to 75%.

As to `COc1cccc(COc2ncc(F)c(NC(=S)Nc3ccccc3F)n2)c1` [Compound 639], the pest or weed control at 25 ppm is 76 to 100% under setting [1] and 51 to 75% under setting [3]. Further, the pest or weed control at 100 ppm was in the range of 76 to 100% under setting [2] and 76 to 100% under setting [4].
